Read-outs that look alike come from different tables or passages of the source.
What was measured:
budding yeast = experiment: MIC of CFW in the presence of compounds, checkerboard assay; assay type: cell-based, S. cerevisiae; settings: budding yeast, CFW alone
Description: (§1) Fresh cell cultures of WT S. cerevisiae and C. albicans ATCC10231 (OD600 = 0.8) were diluted to 10^4 CFU/mL in YPD medium. The in vitro synergistic and antagonistic effects of compounds were determined using checkerboard assay. MIC endpoints were defined as the lowest concentration of drugs, causing 80% decrease in viability compared to the drug-free control (MIC80). The calculation and interpretation of the fractional inhibitory concentration index (FICI) were carried out by referring to the document standards. FICI = (MIC of drug A in combination) / (MIC of drug A alone) + (MIC of drug B in combination) / (MIC of drug B alone). FIC ≤0.5 was considered as a synergistic effect, and >2 was considered as antagonism.

C. albicans = experiment: as above; assay type: cell-based, Candida albicans
Description: as §1

[1] = system: WT S. cerevisiae strain BY4741; experiment: MIC in compound library screening assay, WT yeast; assay type: cell-based; settings: for MIC: Saccharomyces cerevisiae
Description: (§2) The compound library is a combination of synthetic compounds from Enamine (Kyiv, Ukraine) and Life Chemicals Inc. (Burlington, ON, Canada) and natural products from the Institute of Medicinal Biotechnology. We used WT, chs3∆, and fks1∆ yeast strains to screen new antifungal agents. The screening assays were performed in 96-well plates in a final volume of 200 μL. Fresh yeast cells (OD600 = 0.8) were diluted to 10^5 CFU/mL in YPD medium. We added 198 μL of diluted culture and 2 μL of compounds into each well, and the final concentration of compounds was 100 μg/mL with 1% DMSO. The yeast cells were incubated at 30 °C for 24 hours to assess the growth. For the compounds that inhibited the growth of all three yeast strains, they were serially diluted to determine the minimal inhibit concentration (MIC) with the same method. MIC endpoints were defined as the lowest concentration of drugs that cause a 90% decrease in growth compared to the drug-free control (MIC90).

[2] = system: chs3∆ (chs3::KanMX in BY4741); experiment: MIC in compound library screening assay, chs3∆ yeast; assay type: cell-based, S. cerevisiae; settings: for MIC: Saccharomyces cerevisiae, 24 h
Description: as §2

[3] = system: fks1∆ (fks1::KanMX in BY4741); experiment: MIC in compound library screening assay, fks1∆ yeast; assay type: cell-based, S. cerevisiae; settings: for MIC: Saccharomyces cerevisiae, 24 h, read-out: MIC, fks1∆
Description: as §2

C. albicans ATCC10231 = experiment: Checkerboard assay, synergy with caspofungin; assay type: cell-based; settings: Candida albicans
Description: as §1

WT S. cerevisiae = experiment: Checkerboard assay, synergy with caspofungin; assay type: cell-based; settings: for MIC: Saccharomyces cerevisiae, read-out: MIC Alone
Description: as §1

Compound | MIC of CFW (budding yeast) [µg/mL] | MIC of CFW (C. albicans; C. albicans, absence of chitin synthesis inhibitor) [µg/mL] | MIC ([1]; WT BY4741, YPD, 30 °C, 24 hours, MIC90, read-out: MIC, WT) [µg/mL] | MIC ([2]; read-out: MIC, chs3∆) [µg/mL] | MIC [3] [µg/mL] | MIC (C. albicans ATCC10231; ATCC10231, compound alone, MIC80, read-out: MIC Alone) [µg/mL] | MIC (WT S. cerevisiae; S. cerevisiae, compound alone, MIC80) [µg/mL] | MIC ([1]; 24 h, read-out: MIC, WT, WT BY4741, YPD, 30 °C, 24 hours, MIC90) [µg/mL] | MIC, WT ([1]; WT BY4741, YPD, 30 °C, 24 hours, MIC90) [µg/mL] | MIC ([2]; read-out: MIC, chs3∆, chs3∆ mutant, YPD, 30 °C, 24 hours, MIC90) [µg/mL] | MIC, chs3∆ ([2]; chs3∆ mutant, YPD, 30 °C, 24 hours, MIC90) [µg/mL] | MIC, fks1∆ ([3]; fks1∆ mutant, YPD, 30 °C, 24 hours, MIC90) [µg/mL] | MIC (C. albicans ATCC10231; ATCC10231, read-out: MIC Alone) [µg/mL] | MIC of Caspofungin Combination (C. albicans ATCC10231; MIC of caspofungin in combination with the named compound, MIC80) [µg/mL] | MIC Combination (C. albicans ATCC10231; MIC of the compound in combination with caspofungin, MIC80) [µg/mL] | MIC of Caspofungin Combination (WT S. cerevisiae; S. cerevisiae, MIC of caspofungin in combination with the named compound, MIC80) [µg/mL] | MIC Combination (WT S. cerevisiae; S. cerevisiae, MIC of the compound in combination with caspofungin, MIC80) [µg/mL] | FICI (WT S. cerevisiae; S. cerevisiae, fractional inhibitory concentration index with caspofungin, ≤0.5 synergistic) | MIC (WT S. cerevisiae) [µg/mL] | MIC (C. albicans; Candida albicans, read-out: MIC of CFW in the presence of nikkomycin Z) [µg/mL]
O=S(=O)([O-])c1cc(Nc2nc(Nc3ccccc3)nc(N(CCO)CCO)n2)ccc1/C=C/c1ccc(Nc2nc(Nc3ccccc3)nc(N(CCO)CCO)n2)cc1S(=O)(=O)[O-].[Na+].[Na+] [CFW, Calcofluor White M2R, reference compound] | 6.25 | 12.5 |  |  |  |  |  |  |  |  |  |  |  |  |  |  |  |  |  | 
CC[C@H](C)C[C@H](C)CCCCCCCCC(=O)N[C@H]1C[C@@H](O)[C@@H](NCCN)NC(=O)[C@@H]2[C@@H](O)CCN2C(=O)[C@H]([C@H](O)CCN)NC(=O)[C@H]([C@H](O)[C@@H](O)c2ccc(O)cc2)NC(=O)[C@@H]2C[C@@H](O)CN2C(=O)[C@H]([C@@H](C)O)NC1=O [Caspofungin, caspofungin] |  |  | 0.03 | 0.00375 | 0.015 | 0.025 | 0.03 |  |  |  |  |  |  |  |  |  |  |  |  | 
C[C@@H]([C@H](N)C(=O)N[C@H](C(=O)O)[C@H]1O[C@@H](n2ccc(=O)[nH]c2=O)[C@H](O)[C@@H]1O)[C@H](O)c1ccc(O)cn1 [Nikkomycin, nikkomycin Z, reference compound] |  |  |  |  | 25 |  |  | ≥ 200 | > 200 | ≥ 200 | > 200 | 25 | 12.5 | 0.00625 | 3.125 | 0.0075 | 12.5 | <0.5 | > 100 | 100

Source: paper PMC6749524, “Identification of New Antifungal Agents Targeting Chitin Synthesis by a Chemical-Genetic Method” (Molecules, 2019)
